{"source": "a compilation of properties of binary mixtures (doi:10.1007/s10953-014-0283-z)", "assay": "xn = mol fraction of the nth substance listed", "conditions": "100 kPa", "data": [{"smiles": "CC[NH3+].O=[N+]([O-])[O-]", "note": "+ O", "values": [{"measurement": "viscosity", "setting": "293.15 K, x2 = 0", "value": 40.61, "unit": "mPa·s"}, {"measurement": "viscosity", "setting": "293.15 K, x2 = 0.2597", "value": 9.91, "unit": "mPa·s"}, {"measurement": "viscosity", "setting": "293.15 K, x2 = 0.6776", "value": 3.6, "unit": "mPa·s"}, {"measurement": "viscosity", "setting": "293.15 K, x2 = 0.7889", "value": 2.4, "unit": "mPa·s"}, {"measurement": "viscosity", "setting": "293.15 K, x2 = 0.8895", "value": 1.64, "unit": "mPa·s"}, {"measurement": "viscosity", "setting": "293.15 K, x2 = 0.9499", "value": 1.36, "unit": "mPa·s"}, {"measurement": "viscosity", "setting": "298.15 K, x2 = 0", "value": 34.49, "unit": "mPa·s"}, {"measurement": "viscosity", "setting": "298.15 K, x2 = 0.1088", "value": 18.13, "unit": "mPa·s"}, {"measurement": "viscosity", "setting": "298.15 K, x2 = 0.2597", "value": 8.77, "unit": "mPa·s"}, {"measurement": "viscosity", "setting": "298.15 K, x2 = 0.3682", "value": 6.77, "unit": "mPa·s"}, {"measurement": "viscosity", "setting": "298.15 K, x2 = 0.47", "value": 5.61, "unit": "mPa·s"}, {"measurement": "viscosity", "setting": "298.15 K, x2 = 0.579", "value": 4.46, "unit": "mPa·s"}, {"measurement": "viscosity", "setting": "298.15 K, x2 = 0.6776", "value": 3.22, "unit": "mPa·s"}, {"measurement": "viscosity", "setting": "298.15 K, x2 = 0.9499", "value": 1.22, "unit": "mPa·s"}, {"measurement": "viscosity", "setting": "303.15 K, x2 = 0", "value": 29.65, "unit": "mPa·s"}, {"measurement": "viscosity", "setting": "303.15 K, x2 = 0.3682", "value": 6.06, "unit": "mPa·s"}, {"measurement": "viscosity", "setting": "303.15 K, x2 = 0.47", "value": 5.04, "unit": "mPa·s"}, {"measurement": "viscosity", "setting": "303.15 K, x2 = 0.579", "value": 4, "unit": "mPa·s"}, {"measurement": "viscosity", "setting": "303.15 K, x2 = 0.6776", "value": 2.9, "unit": "mPa·s"}, {"measurement": "viscosity", "setting": "303.15 K, x2 = 0.9499", "value": 1.1, "unit": "mPa·s"}, {"measurement": "viscosity", "setting": "308.15 K, x2 = 0", "value": 25.76, "unit": "mPa·s"}, {"measurement": "viscosity", "setting": "308.15 K, x2 = 0.2597", "value": 6.9, "unit": "mPa·s"}, {"measurement": "viscosity", "setting": "308.15 K, x2 = 0.3682", "value": 5.41, "unit": "mPa·s"}, {"measurement": "viscosity", "setting": "308.15 K, x2 = 0.579", "value": 3.61, "unit": "mPa·s"}, {"measurement": "viscosity", "setting": "308.15 K, x2 = 0.6776", "value": 2.62, "unit": "mPa·s"}, {"measurement": "viscosity", "setting": "308.15 K, x2 = 0.7889", "value": 1.78, "unit": "mPa·s"}, {"measurement": "viscosity", "setting": "308.15 K, x2 = 0.8895", "value": 1.22, "unit": "mPa·s"}, {"measurement": "viscosity", "setting": "308.15 K, x2 = 0.9499", "value": 1, "unit": "mPa·s"}, {"measurement": "viscosity", "setting": "313.15 K, x2 = 0.1088", "value": 12.2, "unit": "mPa·s"}, {"measurement": "viscosity", "setting": "313.15 K, x2 = 0.2597", "value": 6.2, "unit": "mPa·s"}, {"measurement": "viscosity", "setting": "313.15 K, x2 = 0.3682", "value": 4.89, "unit": "mPa·s"}, {"measurement": "viscosity", "setting": "313.15 K, x2 = 0.47", "value": 4.08, "unit": "mPa·s"}, {"measurement": "viscosity", "setting": "313.15 K, x2 = 0.6776", "value": 2.38, "unit": "mPa·s"}, {"measurement": "viscosity", "setting": "313.15 K, x2 = 0.7889", "value": 1.62, "unit": "mPa·s"}, {"measurement": "viscosity", "setting": "313.15 K, x2 = 0.8895", "value": 1.12, "unit": "mPa·s"}, {"measurement": "viscosity", "setting": "313.15 K, x2 = 0.9499", "value": 0.92, "unit": "mPa·s"}, {"measurement": "viscosity", "setting": "318.15 K, x2 = 0", "value": 20.12, "unit": "mPa·s"}, {"measurement": "viscosity", "setting": "318.15 K, x2 = 0.1088", "value": 10.87, "unit": "mPa·s"}, {"measurement": "viscosity", "setting": "318.15 K, x2 = 0.2597", "value": 5.59, "unit": "mPa·s"}, {"measurement": "viscosity", "setting": "318.15 K, x2 = 0.3682", "value": 4.43, "unit": "mPa·s"}, {"measurement": "viscosity", "setting": "318.15 K, x2 = 0.579", "value": 2.97, "unit": "mPa·s"}, {"measurement": "viscosity", "setting": "318.15 K, x2 = 0.6776", "value": 2.17, "unit": "mPa·s"}, {"measurement": "viscosity", "setting": "318.15 K, x2 = 0.8895", "value": 1.03, "unit": "mPa·s"}, {"measurement": "viscosity", "setting": "318.15 K, x2 = 0.9499", "value": 0.84, "unit": "mPa·s"}]}, {"smiles": "O", "note": "+ CC[NH3+].O=[N+]([O-])[O-]", "values": [{"measurement": "viscosity", "setting": "293.15 K, x1 = 1", "value": 0.99, "unit": "mPa·s"}, {"measurement": "viscosity", "setting": "298.15 K, x1 = 1", "value": 0.89, "unit": "mPa·s"}, {"measurement": "viscosity", "setting": "303.15 K, x1 = 1", "value": 0.81, "unit": "mPa·s"}, {"measurement": "viscosity", "setting": "308.15 K, x1 = 1", "value": 0.74, "unit": "mPa·s"}, {"measurement": "viscosity", "setting": "318.15 K, x1 = 1", "value": 0.6, "unit": "mPa·s"}]}]}
